Our source for the IC50 values is patent US20240262812A1, “N-SUBSTITUTED PHENYLSULFONAMIDE COMPOUND AND USE THEREOF” (Shanghai Leado Pharmatech Co., Ltd., priority 2021, published 2024).

Molecules are shown by their SMILES. Bounds are passed on as bounds.

This assay deals with T1, mTRPA1 (Mus musculus, UniProt Q8BLA8).
T1 construct: expressed in transfected cells
T1 sequence (Q8BLA8 whole entry): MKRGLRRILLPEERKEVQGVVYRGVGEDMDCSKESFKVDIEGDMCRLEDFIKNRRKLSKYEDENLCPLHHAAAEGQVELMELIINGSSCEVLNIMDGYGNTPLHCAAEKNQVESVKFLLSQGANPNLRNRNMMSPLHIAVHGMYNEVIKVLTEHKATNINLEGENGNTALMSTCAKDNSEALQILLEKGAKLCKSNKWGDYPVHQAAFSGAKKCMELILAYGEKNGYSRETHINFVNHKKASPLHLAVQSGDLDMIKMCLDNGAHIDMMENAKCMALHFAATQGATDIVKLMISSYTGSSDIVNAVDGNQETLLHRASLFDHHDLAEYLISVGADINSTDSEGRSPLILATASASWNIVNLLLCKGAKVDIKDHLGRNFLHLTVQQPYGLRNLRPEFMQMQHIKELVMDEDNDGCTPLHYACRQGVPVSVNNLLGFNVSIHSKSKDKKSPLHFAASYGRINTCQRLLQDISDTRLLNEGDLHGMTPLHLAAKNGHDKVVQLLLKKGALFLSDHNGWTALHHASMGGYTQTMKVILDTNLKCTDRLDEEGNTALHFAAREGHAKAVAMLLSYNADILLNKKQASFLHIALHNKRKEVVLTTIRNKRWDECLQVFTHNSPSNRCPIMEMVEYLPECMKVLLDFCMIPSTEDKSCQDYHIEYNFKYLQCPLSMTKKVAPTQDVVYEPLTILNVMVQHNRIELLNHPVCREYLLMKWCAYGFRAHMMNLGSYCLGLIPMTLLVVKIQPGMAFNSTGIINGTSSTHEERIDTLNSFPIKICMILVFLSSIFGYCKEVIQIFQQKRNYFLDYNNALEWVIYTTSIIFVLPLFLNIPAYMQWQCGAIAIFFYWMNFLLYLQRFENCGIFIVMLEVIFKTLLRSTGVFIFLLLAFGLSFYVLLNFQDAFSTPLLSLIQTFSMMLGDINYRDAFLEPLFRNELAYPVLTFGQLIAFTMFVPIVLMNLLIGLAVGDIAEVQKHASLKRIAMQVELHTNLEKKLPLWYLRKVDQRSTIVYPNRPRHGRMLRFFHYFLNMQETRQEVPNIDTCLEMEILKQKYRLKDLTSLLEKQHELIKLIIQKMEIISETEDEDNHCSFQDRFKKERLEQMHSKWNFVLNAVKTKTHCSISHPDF
The assay can be described thus: IonWorks Barracuda (IWB) automated patch clamp, TRPA1 inhibitory activity. The assay is classed as cell-based. The conditions noted are these: HEK293 cells stably expressing mTRPA1, current induced by AITC, amplitude at +100 mV; read-out: IC50 (inhibition activity on TRPA1). The procedure: In this example, the inhibitory activity of the compounds prepared in some examples of the present invention on transient receptor potential channel protein ankyrin 1 (TRPA1) was tested. Among them, compound of formula A (WO2010075353) was used as the positive control compound: […]
Test method using IonWorks Barracuda (IWB) automated patch clamp detection: HEK293 cells stably expressing mTRPA1 were placed in the T175 culture flask with DMEM medium containing 15 µg/mL Blasticidin S HCl, 200 µg/mL Hygromycin B and 10% FBS, and cultured in 37° C., 5% CO2 incubator. When the cell density reached about 80%, the culture medium was removed, washed once with phosphate buffered saline (PBS) without calcium and magnesium. 3 mL of Trypsin was added to digest for 2 min, 7 mL of culture solution was added to terminate the digestion. The cells were collected to 15 mL centrifuge tube and centrifuged at 800 rpm for 3 min. After the supernatant was removed, the cells were added to appropriate volume of extracellular fluid for re-suspending, and the cell density was controlled at 2-3×10^6/mL for use in IWB experiment. Extracellular fluid formulation (in mM): 140 NaCl, 5 KCl, 1 MgCl2, 10 HEPES, 0.5 EGTA, 10 Glucose (pH 7.4); intracellular fluid formulation (in mM): 140 CsCl, 10 HEPES, 5 EGTA, 0.1 CaCl2, 1 MgCl2 (pH 7.2). 28 mg/mL of amphotericin B was freshly prepared with DMSO on the day of experiment, and then final concentration of 0.1 mg/mL was prepared with intracellular fluid.
Population patch clamp (PPC) plate was used in IWB experiment. The entire detection process was automatically carried out by the instrument, that is, extracellular fluid was added into 384 wells of PPC plate, and after intracellular fluid was added under PPC plate (in plenum), 6 µL of cell fluid was added for sealing test, and finally the intracellular fluid in plenum was replaced with intracellular fluid containing amphotericin B to establish a whole-cell recording mode after perforating sealed cells. The sampling frequency for recording TPRA1 current was 10 kHz, the cells were clamped at 0 mV, the voltage stimulation command (channel protocol) was a ramp voltage from −100 mV to +100 mV for 300 ms. This voltage stimulation was applied every 10 s, mTRPA1 current was induced by 300 µM AITC.
Data recording and current amplitude measurement export were carried out by IWB software (version 2.5.3, Molecular Devices Corporation, Union City, CA). No statistics was recorded for holes with sealing impedance lower than 20 MΩ. The original current data was corrected by software for leak subtraction. TRPA1 current amplitude was measured at +100 mV. […] If IC50 value of HC030031 exceeded 3 times of the average IC50 value previously obtained on each plate, it would be re-tested. The dose-effect curve of compounds and IC50 were fitted and calculated by GraphPad Prism 5.02 (GraphPad Software, San Diego, CA).
Some compounds of the present invention were subjected to IC50 inhibition activity test using the IonWorks Barracuda (IWB) automated patch clamp detection method.
For orientation: Patch clamp records ionic current or voltage across a cell membrane.
Usually IC50 stands for the concentration at which inhibition is half-maximal. Turning to `CNCc1ccc(-c2c(C)noc2C)c(NS(=O)(=O)c2ccccc2)c1` [IA-53, N-(2-(3,5-dimethylisoxazol-4-yl)-5-((methylamino)methyl)phenyl)benzenesulfonamide], the IC50 was in the range of 5 to 10 µM.
The same measure for `CNCc1ccc(-c2cc[nH]n2)c(NS(=O)(=O)c2ccccc2)c1` [IA-54, N-(5-((methylamino)methyl)-2-(1H-pyrazol-5-yl)phenyl)benzenesulfonamide]: 1 to 5 µM; for `CNCc1ccc(-c2cnn(C)c2)c(NS(=O)(=O)c2ccccc2)c1` [IA-56, N-(2-(1-methyl-1H-pyrazole-4-yl)-5-((methylamino)methyl)phenyl)benzenesulfonamide]: 10 to 20 µM; for `CNCc1ccc(-c2c(C)nn(C)c2C)c(NS(=O)(=O)c2ccccc2)c1` [IA-57, N-(5-((methylamino)methyl)-2-(1,3,5-trimethyl-1H-pyrazole-4-yl)phenyl) benzenesulfonamide]: 20 to 50 µM.
With `CNCc1ccc(-c2c(C)n[nH]c2C)c(NS(=O)(=O)c2ccccc2)c1` [IA-58, N-(2-(3,5-dimethyl-1H-pyrazole-4-yl)-5-((methylamino)methyl)phenyl)benzenesulfonamide] the figure was 50 to 100 µM; with `CNCc1ccc(-c2ncc(C)s2)c(NS(=O)(=O)c2ccccc2)c1` [IA-59, N-(5-((methylamino)methyl)-2-(5-methylthiazol-2-yl)phenyl)benzenesulfonamide], 5 to 10 µM; with `CNCc1ccc(-c2cnc[nH]2)c(NS(=O)(=O)c2ccccc2)c1` [IA-61, N-(2-(1H-imidazol-5-yl)-5-((methylamino)methyl)phenyl)benzenesulfonamide], 10 to 20 µM.
In the case of `O=S(=O)(Nc1cc(CNCC(F)(F)F)ccc1-c1ccco1)c1ccccc1` [IA-62], the IC50 fell in the range of 50 to 100 µM.
The same measure for `O=S(=O)(Nc1cc(/C=N\O)ccc1-c1ccco1)c1ccccc1` [IC-1, N-(2-(furan-2-yl)-5-((oximido)methyl)phenyl)benzenesulfonamide]: 20 to 50 µM; for `NCc1ccc(-c2ccco2)c(NS(=O)(=O)c2ccc(F)cc2)c1` [ID-2, N-(5-(aminomethyl)-2-(furan-2-yl)phenyl)-4-fluorobenzenesulfonamide]: 1 to 5 µM.
With `NCc1ccc(NS(=O)(=O)c2ccccc2)c(-c2ccco2)c1` [ID-4, N-(4-(aminomethyl)-2-(furan-2-yl)phenyl)benzenesulfonamide] the figure was 1 to 5 µM.
In the case of `NCc1ccc(NS(=O)(=O)c2ccc(F)cc2)c(-c2ccco2)c1` [ID-6, N-(4-(aminomethyl)-2-(furan-2-yl)phenyl)-4-fluorobenzenesulfonamide], the IC50 lay within 1 to 5 µM.
In the case of `NCc1ccc(-c2cc[nH]n2)c(NS(=O)(=O)c2ccsc2)c1` [ID-8, N-(5-(aminomethyl)-2-(1H-pyrazole-3-yl)phenyl)thiophene-3-sulfonamide], the IC50 lay in the range of 1 to 5 µM.
With `CC(=O)NCc1ccc(NS(=O)(=O)c2ccsc2)c(-c2ccco2)c1` [IE, N-(3-(furan-2-yl)-4-(thiophene-3-sulfonamide)benzyl)acetamide] the figure was 20 to 50 µM.
With `O=S(=O)(Nc1cc(CO)ccc1-c1ccco1)c1ccccc1` [IH, N-(2-(furan-2-yl)-5-(hydroxymethyl)phenyl)benzenesulfonamide] the figure was 20 to 50 µM; with `CN(C)Cc1ccc(NS(=O)(=O)c2ccsc2)c(-c2ccco2)c1` [IJ-1, N-(4-((dimethylamino)methyl)-2-(furan-2-yl)phenyl)thiophene-3-sulfonamide], 1 to 5 µM.
The same measure for `CNCc1ccc(-n2nccn2)c(NS(=O)(=O)c2ccccc2)c1` [IQ-3, N-(5-((methylamino)methyl)-2-(2H-1,2,3-triazol-2-yl)phenyl)benzenesulfonamide]: 1 to 5 µM; for `CNCc1ccc(-n2ccnn2)c(NS(=O)(=O)c2ccccc2)c1` [IQ-4, N-(5-((methylamino)methyl)-2-(1H-1,2,3-triazol-1-yl)phenyl)benzenesulfonamide]: 5 to 10 µM; for `CNCCc1ccc(NS(=O)(=O)c2ccsc2)c(-c2ccco2)c1` [IS, N-(2-(furan-2-yl)-4-(2-(methylamino)ethyl)phenyl)thiophene-3-sulfonamide]: 1 to 5 µM.
For the compound `CC(N)c1ccc(N(C)S(=O)(=O)c2ccccc2)c(-c2ccco2)c1` (stereo not shown) [IU-1], the IC50 was 1 to 5 µM.
The same measure for `CC(N)c1ccc(NS(=O)(=O)c2ccccc2)c(-c2ccco2)c1` (stereo not shown) [IU-2, N-(4-(1-aminoethyl)-2-(furan-2-yl)phenyl)benzenesulfonamide]: 1 to 5 µM; for `CCC(N)c1ccc(NS(=O)(=O)c2ccccc2)c(-c2ccco2)c1` (stereo not shown) [IU-3, N-(4-(1-aminopropyl)-2-(furan-2-yl)phenyl)benzenesulfonamide]: below 1 µM.
The same measure for `CCCC(N)c1ccc(NS(=O)(=O)c2ccccc2)c(-c2ccco2)c1` (stereo not shown) [IU-4, N-(4-(1-aminobutyl)-2-(furan-2-yl)phenyl)benzenesulfonamide]: below 1 µM; for `CC(C)C(N)c1ccc(NS(=O)(=O)c2ccccc2)c(-c2ccco2)c1` (stereo not shown) [IU-5, N-(4-(1-amino-2-methylpropyl)-2-(furan-2-yl)phenyl)benzenesulfonamide]: below 1 µM.
`NC(c1ccc(NS(=O)(=O)c2ccccc2)c(-c2ccco2)c1)C1CC1` (stereo not shown) [IU-6, N-(4-(amino(cyclopropyl)methyl)-2-(furan-2-yl)phenyl)benzenesulfonamide]: the IC50 is below 1 µM.
As for `NC(c1ccccc1)c1ccc(NS(=O)(=O)c2ccccc2)c(-c2ccco2)c1` (stereo not shown) [IU-7, N-(4-(amino(phenyl)methyl)-2-(furan-2-yl)phenyl)benzenesulfonamide], the IC50 was in the range of 1 to 5 µM.
With `NC(Cc1ccccc1)c1ccc(NS(=O)(=O)c2ccccc2)c(-c2ccco2)c1` (stereo not shown) [IU-8, N-(4-(1-amino-2-phenylethyl)-2-(furan-2-yl)phenyl)benzenesulfonamide], the IC50 is 10 to 20 µM.
The same measure for `CC(N)c1ccc(-c2ccco2)c(NS(=O)(=O)c2ccccc2)c1` (stereo not shown) [IU-9, N-(5-(1-aminoethyl)-2-(furan-2-yl)phenyl)benzenesulfonamide]: below 1 µM; for `CNC(C)c1ccc(NS(=O)(=O)c2ccccc2)c(-c2ccco2)c1` (stereo not shown) [IV-1, N-(2-(furan-2-yl)-4-(1-(methylamino)ethyl)phenyl)benzenesulfonamide]: 1 to 5 µM.
The same measure for `CNC(C)c1ccc(-c2ccco2)c(NS(=O)(=O)c2ccccc2)c1` (stereo not shown) [IV-2, N-(2-(furan-2-yl)-5-(1-(methylamino)ethyl)phenyl)benzenesulfonamide]: 1 to 5 µM.
The same measure for `O=S(=O)(Nc1cc(C2CCCN2)ccc1-c1ccco1)c1ccccc1` (stereo not shown) [IW, N-(2-(furan-2-yl)-5-(pyrrolidin-2-yl)phenyl)benzenesulfonamide]: 1 to 5 µM.
